Test [1] addresses T1, NAMPT (Homo sapiens, UniProt P43490).
T1 construct: His tag; host or cells: E. coli
The test can be described thus: Biochemical inhibition assay: NAMPT enzymatic reaction, NMN quantified by mass spectrometry. The following applies: read-out: Biochem IC50. In short, it runs like this: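 Inhibition of E. coli-expressed His-tagged human NAMPT, measured as NMN formation by mass spectrometry after a 30 min room-temperature reaction containing 1 μM NAM, 100 μM PRPP and 2.5 mM ATP.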

Test [2] relates to A2780 cells. In words: In-vitro cell proliferation assay (SRB), A2780 cells. In kind it is cell-based. Particulars: Homo sapiens, A2780, 72 h, A2780 cells, 72 hours, read-out: A2780 IC50. In outline:
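Proliferation is assessed by sulforhodamine B staining following a 72-hour incubation with compound dilutions containing 0.1% DMSO.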

SMILES strings stand for the structures. Like-named read-outs stand apart in the source and are kept apart here.

T1 sequence (P43490 whole entry): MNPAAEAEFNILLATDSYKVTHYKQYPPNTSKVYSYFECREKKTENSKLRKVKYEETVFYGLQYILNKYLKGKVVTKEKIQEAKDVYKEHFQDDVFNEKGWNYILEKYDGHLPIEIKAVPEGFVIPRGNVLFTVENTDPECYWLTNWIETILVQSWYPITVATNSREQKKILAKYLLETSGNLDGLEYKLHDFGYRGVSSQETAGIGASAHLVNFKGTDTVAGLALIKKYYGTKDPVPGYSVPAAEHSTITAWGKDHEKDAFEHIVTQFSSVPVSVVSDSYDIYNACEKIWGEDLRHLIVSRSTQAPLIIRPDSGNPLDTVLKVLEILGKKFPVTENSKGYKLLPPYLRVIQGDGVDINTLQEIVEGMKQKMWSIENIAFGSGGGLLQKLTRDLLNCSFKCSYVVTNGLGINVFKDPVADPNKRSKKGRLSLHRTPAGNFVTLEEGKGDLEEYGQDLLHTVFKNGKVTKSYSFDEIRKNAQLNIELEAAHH

As a reminder, the IC50 is the concentration that inhibits the measured activity by half. On to `O=C(NCc1ccc(S(=O)(=O)N2CCCCC2)cc1)c1ccc2cnccc2n1` [N-{[4-(piperidine-1-sulfonyl)phenyl]methyl}-1,6-naphthyridine-2-carboxamide], for which the IC50 in test [1] (NAMPT enzymatic reaction) was found to be 12 nM; in test [2] (SRB assay) it was 10 nM.
For `O=C(NCc1ccc(S(=O)(=O)N2CCCCC2)cc1)c1ccc2nc[nH]c2c1` [N-{[4-(piperidine-1-sulfonyl)phenyl]methyl}-1H-1,3-benzodiazole-5-carboxamide], in that order: 21 nM and 10 nM.
For the compound `O=C(NCc1ccc(S(=O)(=O)N2CCCCC2)cc1)c1cn2[nH]ccc2n1` [N-{[4-(piperidine-1-sulfonyl)phenyl]methyl}-1H-imidazo[1,2-b]pyrazole-5-carboxamide], the IC50 in test [1] (NAMPT enzymatic reaction) came out at 0.8 nM; in test [2] (SRB assay), 11 nM.
In the same order, the values of `O=C(NCc1ccc(S(=O)(=O)N2CCCCC2)cc1)c1ccc2[nH]ncc2c1` [N-{[4-(piperidine-1-sulfonyl)phenyl]methyl}-1H-indazole-5-carboxamide] are 18 nM and 16 nM.
For `O=C(NCc1ccc(S(=O)(=O)N2CCCCC2)cc1)c1cnc2[nH]ncc2c1` [N-{[4-(piperidine-1-sulfonyl)phenyl]methyl}-1H-pyrazolo[3,4-b]pyridine-5-carboxamide], in that order: 17 nM and 33 nM.
For `O=C(NCc1ccc(S(=O)(=O)N2CCCCC2)cc1)c1cc2ccncc2[nH]1` [N-{[4-(piperidine-1-sulfonyl)phenyl]methyl}-1H-pyrrolo[2,3-c]pyridine-2-carboxamide], in that order: 4 nM and 54 nM.
Take `O=C(NCc1ccc(S(=O)(=O)N2CCCCC2)cc1)c1ccn2nnnc2c1` [N-{[4-(piperidine-1-sulfonyl)phenyl]methyl}-[1,2,3,4]tetrazolo[1,5-a]pyridine-7-carboxamide]: the IC50 in test [1] (NAMPT enzymatic reaction) came to 3 nM; in test [2] (SRB assay), 9 nM.
Regarding `O=C(NCc1ccc(S(=O)(=O)N2CCCCC2)cc1)c1cc2cnccc2o1` [N-{[4-(piperidine-1-sulfonyl)phenyl]methyl}furo[3,2-c]pyridine-2-carboxamide], the IC50 in test [1] (NAMPT enzymatic reaction) was determined as 17 nM; in test [2] (SRB assay), 286 nM.
For `O=C(NCc1ccc(S(=O)(=O)N2CCCCC2)cc1)c1ccc2nccn2c1` [N-{[4-(piperidine-1-sulfonyl)phenyl]methyl}imidazo[1,2-a]pyridine-6-carboxamide], in that order: 18 nM and 1160 nM.
In the same order, the values of `O=C(NCc1ccc(S(=O)(=O)N2CCCCC2)cc1)c1ccn2ccnc2c1` [N-{[4-(piperidine-1-sulfonyl)phenyl]methyl}imidazo[1,2-a]pyridine-7-carboxamide] are more than 100 nM and more than 500 nM.
With `O=C(NCc1ccc(S(=O)(=O)N2CCCCC2)cc1)c1cccnc1` [N-{[4-(piperidine-1-sulfonyl)phenyl]methyl}pyridine-3-carboxamide], the values for the IC50 in test [1] (NAMPT enzymatic reaction) and in test [2] (SRB assay) were 39 nM and 640 nM, respectively.
For `O=C(NCc1ccc(S(=O)(=O)N2CCCCC2)cc1)c1cc2cccnc2s1` [N-{[4-(piperidine-1-sulfonyl)phenyl]methyl}thieno[2,3-b]pyridine-2-carboxamide], in that order: 6150 nM and 14000 nM.
For `O=C(NCc1ccc(S(=O)(=O)N2CCCCC2)cc1)c1cc2cnccc2s1` [N-{[4-(piperidine-1-sulfonyl)phenyl]methyl}thieno[3,2-c]pyridine-2-carboxamide], in that order: 886 nM and 10000 nM.
For `O=C(NCc1ccc(S(=O)(=O)c2ccccn2)cc1)c1cc2ccncc2o1` [N-{[4-(pyridine-2-sulfonyl)phenyl]methyl}furo[2,3-c]pyridine-2-carboxamide], the values for the IC50 in test [1] (NAMPT enzymatic assay) and in test [2] (SRB) were 55.1 nM and 87 nM, respectively.
In the same order, the values of `O=C(NCc1ccc(S(=O)(=O)c2cccnc2)cc1)c1cc2ccncc2o1` [N-{[4-(pyridine-3-sulfonyl)phenyl]methyl}furo[2,3-c]pyridine-2-carboxamide] are 9 nM and 66.4 nM.
Take `O=C(NCc1ccc(S(=O)(=O)c2cccnc2)cc1)c1cnc2nccn2c1` [N-{[4-(pyridine-3-sulfonyl)phenyl]methyl}imidazo[1,2-a]pyrimidine-6-carboxamide]: the figures for the IC50 in test [1] (NAMPT enzymatic assay) and in test [2] (SRB) were 5.9 nM and 100 to 1000 nM, respectively.
For `O=C(NCc1ccc(S(=O)(=O)c2cnc3ccccc3c2)cc1)c1cnc2[nH]ncc2c1` [N-{[4-(quinoline-3-sulfonyl)phenyl]methyl}-1H-pyrazolo[3,4-b]pyridine-5-carboxamide], in that order: 5.2 nM and 4.4 nM.
In the same order, the values of `O=C(NCc1ccc(S(=O)(=O)c2cnc3ccccc3c2)cc1)c1cc2cnccc2[nH]1` [N-{[4-(quinoline-3-sulfonyl)phenyl]methyl}-1H-pyrrolo[3,2-c]pyridine-2-carboxamide] are 16.3 nM and 2.9 nM.
For `O=C(NCc1ccc(S(=O)(=O)c2cnc3ccccc3c2)cc1)c1ccc2nccn2c1` [N-{[4-(quinoline-3-sulfonyl)phenyl]methyl}imidazo[1,2-a]pyridine-6-carboxamide], in that order: 14 nM and 1 nM.
Take `O=C(NCc1ccc(S(=O)(=O)c2cnc3ccccc3c2)cc1)c1cnc2nccn2c1` [N-{[4-(quinoline-3-sulfonyl)phenyl]methyl}imidazo[1,2-a]pyrimidine-6-carboxamide]: the figures for the IC50 in test [1] (NAMPT enzymatic assay) and in test [2] (SRB) were 2.5 nM and 3.6 nM, respectively.
Consider `O=C(NCc1ccc(S(=O)(=O)c2cnc3ccccc3c2)cc1)c1cc2ccncc2s1` [N-{[4-(quinoline-3-sulfonyl)phenyl]methyl}thieno[2,3-c]pyridine-2-carboxamide], for which the IC50 was found to be 4.4 nM in test [1] (NAMPT enzymatic assay), 3 nM in test [1] (NAMPT enzymatic reaction), 0.8 nM in test [2] (SRB assay) and 0.9 nM in test [2] (SRB).
Turning to `O=C(NCc1ccc(S(=O)(=O)c2ccc3ncccc3c2)cc1)c1cnc2[nH]ncc2c1` [N-{[4-(quinoline-6-sulfonyl)phenyl]methyl}-1H-pyrazolo[3,4-b]pyridine-5-carboxamide], the IC50 in test [1] (NAMPT enzymatic assay) was found to be 10.1 nM; in test [2] (SRB), 4.1 nM.
For `O=C(NCc1ccc(S(=O)(=O)c2ccc3ncccc3c2)cc1)c1cc2ccncc2o1` [N-{[4-(quinoline-6-sulfonyl)phenyl]methyl}furo[2,3-c]pyridine-2-carboxamide], in that order: 7.3 nM and 5 nM.
For `O=C(NCc1ccc(S(=O)(=O)c2ccc3ncccc3c2)cc1)c1ccc2nccn2c1` [N-{[4-(quinoline-6-sulfonyl)phenyl]methyl}imidazo[1,2-a]pyridine-6-carboxamide], the results for the IC50 in test [1] (NAMPT enzymatic assay) and in test [2] (SRB) were 5.16 nM and 0.83 nM, respectively.
As to `O=C(NCc1ccc(S(=O)(=O)c2ccc3ncccc3c2)cc1)c1cnc2nccn2c1` [N-{[4-(quinoline-6-sulfonyl)phenyl]methyl}imidazo[1,2-a]pyrimidine-6-carboxamide], the IC50 in test [1] (NAMPT enzymatic assay) was 3.3 nM; in test [2] (SRB), 5.6 nM.
As to `O=C(NCc1ccc(S(=O)(=O)c2ccc3ncccc3c2)cc1)c1cc2ccncc2s1` [N-{[4-(quinoline-6-sulfonyl)phenyl]methyl}thieno[2,3-c]pyridine-2-carboxamide], the IC50 in test [1] (NAMPT enzymatic reaction) is 3 nM; in test [2] (SRB assay) it was 0.9 nM.

The values are drawn from patent US12336981B2, “Compounds and compositions for the inhibition of NAMPT” (Valo Health, Inc., priority 2010, dated 2025).
